Experimental data reported in US20070141067A1, “TARGETED CANCER THERAPY” (MAYO MEDICAL VENTURES, priority 2004, published 2007).

Tested on: HeLa cells
Assay: siRNA pretreatment with or without low dose doxorubicin, HeLa cell survival (drug sensitization)
Type: cell-based
Settings: 50 fold lower than the LD90, dose response experiment
Description: FIG. 6A is a graph illustrating percent cell survival following treatment with a gene-specific siRNA, with or without a low dose drug. Seventy-six test siRNAs (2 or 3 siRNAs per gene plus 6 control siRNAs), targeting 29 novel candidate genes, were transfected into HeLa cells.
FIG. 6B is an enlarged section of the graph in FIG. 6A.
FIG. 6C is a graph of the same data of FIG. 6A plotted as a percentage increase in sensitivity relative to the untreated sample.
An analysis was conducted by a similar method as described in FIG. 4, with two main differences. First, a different set of siRNAs were used. The siRNAs targeted 29 novel candidate genes that were previously identified by cDNA microarray and CGH analysis to be overexpressed and amplified in 14 breast cancer cell lines (Hyman et al., Cancer Res. 62:6240-5, 2002). There were 76 test siRNAs (2 or 3 siRNA per gene plus 6 control siRNAs). The second difference in this study was that the number of experiments was doubled to include a low dose doxorubicin (“Dox”) treatment. Four replicates of the no-drug control, and four replicates of the low dose drug were prepared for a total of 8 wells treated with each siRNA. The HeLa cells were transfected with siRNA as described above, and the cells were allowed to incubate for 24 hours to achieve silencing of the targeted genes. […]

COc1cccc2c1C(=O)c1c(O)c3c(c(O)c1C2=O)C[C@@](O)(C(=O)CO)C[C@@H]3O[C@H]1C[C@H](N)[C@H](O)[C@H](C)O1 [Dox, doxorubicin]
effect of low dose Dox on HeLa cell survival: no effect
